# Data as given in PMC10821286 (Marine Drugs, 2023).
# Where two headings read alike, the source gives them in different places. Where a SMILES comes first, the peptide text is derived from it. Bridges are numbered along the chain shown (N, C = ends).
# Key:
# S. hyicus NCTC 10350 = assay: microbe, parasite or virus in culture; format: cell-based; details: 1 × 10^5 CFU/mL, 37 °C, 12–18 h, triplicate
# Procedure: (§1) Each experiment was performed in triplicate.
# S. epidermidis G-81 [1] = assay: microbe, parasite or virus in culture; format: cell-based, Staphylococcus epidermidis; details: 1 × 10^5 CFU/mL, 37 °C, 12–18 h, triplicate
# Procedure: as §1
# [2] = tested on: S. epidermidis ATCC 12228; assay: microbe, parasite or virus in culture; format: cell-based, Staphylococcus epidermidis; details: 1 × 10^5 CFU/mL, 37 °C, 12–18 h, triplicate
# Procedure: as §1
# Hacat cells = details: 24 h, cck-8
# Procedure: Cell survival rate is calculated as follows: Survival rate (%) = (A/Acontrol) × 100.
# S. epidermidis G-81 [3] = assay: Murine subcutaneous abscess model of S. epidermidis infection; format: in vivo, BALB/c mice; details: mice, day three post-infection
# Procedure: The sterile saline was used for rapid washing twice.
# The six-week-old BALB/c mice were divided randomly into five groups of nine animals: a normal saline control group, an infection group, three drug treatment groups (including AOD treatment in two groups and lincomycin treatment in one group). The hair removal solution was applied to the abdomen of each mouse in every group. One day later, each group, except for the control group, was subcutaneously injected with 0.1 mL of S. epidermidis G-81 at a concentration of 1 × 10^10 CFU/mL. […] In contrast, the infected group received an injection of 10 μL normal saline. The treatment duration was three days, and we continuously observed the weight and volume changes in the abscesses for 15 days. […] […] The results were presented as means ± standard deviation (SD).
# S. aureus ATCC 25923 = assay: microbe, parasite or virus in culture; format: cell-based, Staphylococcus aureus; details: 1 × 10^5 CFU/mL, 37 °C, 12–18 h, triplicate
# Procedure: as §1
# S. aureus ATCC 43300 = assay: microbe, parasite or virus in culture; format: cell-based, Staphylococcus aureus; details: 1 × 10^5 CFU/mL, 37 °C, 12–18 h, triplicate
# Procedure: as §1
# S. aureus E48 = assay: microbe, parasite or virus in culture; format: cell-based, Staphylococcus aureus; details: microbroth dilution, 1 × 10^5 CFU/mL, 37 °C, 12–18 h, triplicate
# Procedure: as §1
# mouse red blood cells = details: 128 μg/mL; mouse erythrocytes, 37 °C, 1 h
# Procedure: Erythrocytes from mice of SPF grade were centrifuged at 2000 rpm for 5 min, followed by washes with saline solution three times. […] The mixture was then incubated at 37 °C for 1 h. Subsequently, it was centrifuged at 5000 rpm for 5 min and the supernatant was collected for measurement of the absorbance at OD540 nm. The 0.9% NaCl and 0.1% Triton X-100 were used as blank (A0) and positive (A100) controls, respectively [32]. The percentage of peptide hemolysis is calculated as follows: Hemolysis (%) = [(A − A0)/(A100 − A0)] × 100. Each experiment was performed in triplicate, and data were analyzed by the GraphPad Prism (version 8, USA, the software download from https://www.graphpad-prism.cn/, accessed on 7 June 2023).
# S. agalactiae ATCC 13813 = details: microbroth dilution, 1 × 10^5 CFU/mL, 37 °C, 12–18 h, triplicate
# Procedure: (§2) The strains to be tested were cultured overnight at 37 °C and then transferred to fresh medium until the logarithmic phase of growth was reached. […] The plate was then incubated at 37 °C for 12–18 h. The minimum concentration of no bacterial growth was recorded as the MIC value. Each experiment was performed in triplicate.
# [4] = tested on: S. epidermidis ATCC 35984; details: microbroth dilution, 1 × 10^5 CFU/mL, 37 °C, 12–18 h, triplicate
# Procedure: as §2
# Ion stability = format: physicochemical; details: Zn2+, Mg2+, Ca2+, NH4+, K+, Na+; 37 °C, 4 h (method); read-out MIC against S. epidermidis
# Excerpt: The results were presented as means ± standard deviation (SD).
# pepsin = pepsin 3000 U/mg, pH 2.0, ratio 10:1, 37 °C, 4 h; read-out MIC against S. epidermidis, triplicate
# Procedure: (§3) Each experiment was performed in triplicate, and data were analyzed by the GraphPad Prism (version 8, USA, the software download from https://www.graphpad-prism.cn/, accessed on 7 June 2023).
# trypsin = trypsin 250 U/mg, pH 8.0, ratio 10:1, 37 °C, 4 h; read-out MIC against S. epidermidis, triplicate
# Procedure: as §3
# [5] = 100 °C, one hour in PBS; read-out MIC against S. epidermidis
# Procedure: as §3
# [6] = tested on: S. pseudintermedius A2101; assay: organism not typed; format: cell-based; details: microbroth dilution, 1 × 10^5 CFU/mL, 37 °C, 12–18 h, triplicate
# Procedure: as §1
# E. coli ATCC 25922 = assay: MIC, microbroth dilution; format: cell-based; details: Escherichia coli, ATCC25922, 1 × 10^5 CFU/mL, 37 °C, 12–18 h, triplicate
# S. epidermidis G-81 [7] = assay: Time-killing curves; format: cell-based, Staphylococcus epidermidis; details: S. epidermidis G-81, lincomycin 1× and 2× MIC (positive control), 24 h
# Procedure: Samples were collected at intervals of 0, 0.5, 1, 2, 4, 6, 8, 10, 12, and 24 h, respectively, and subjected to 10-fold serial dilutions followed by colony counting. PBS and Lincomycin were used as negative and positive controls. […] The results were presented as means ± standard deviation (SD).
compound,measurement,setting,value
"CC[C@H](C)[C@@H]1NC(=O)[C@H](CO)NC(=O)[C@H](CCCNC(=N)N)NC(=O)[C@@H]2CSSC[C@@H](C(=O)N[C@@H](Cc3ccc(O)cc3)C(=O)N[C@@H](CCCNC(=N)N)C(=O)N[C@@H](CO)C(=O)O)NC(=O)[C@H]([C@@H](C)O)NC(=O)[C@@H]3CSSC[C@H](NC(=O)[C@H](CCC(N)=O)NC(=O)[C@H](Cc4ccc(O)cc4)NC(=O)[C@H](CCCNC(=N)N)NC(=O)[C@H](CC(N)=O)NC(=O)[C@H](Cc4c[nH]c5ccccc45)NC(=O)[C@@H]4CCCN4C(=O)[C@@H](NC(=O)CNC(=O)[C@H](Cc4ccccc4)NC(=O)CN)CSSC[C@H](NC(=O)[C@H](Cc4ccc(O)cc4)NC(=O)CNC(=O)CNC(=O)[C@H](CC(C)C)NC(=O)[C@H](CCCNC(=N)N)NC(=O)CNC1=O)C(=O)N[C@@H](C)C(=O)NCC(=O)N[C@@H](CO)C(=O)N[C@@H](CC(C)C)C(=O)N[C@@H](CCCNC(=N)N)C(=O)N[C@@H](CC(C)C)C(=O)N[C@@H]([C@@H](C)O)C(=O)N3)C(=O)N[C@@H](Cc1c[nH]cn1)C(=O)N[C@@H](CO)C(=O)N[C@@H](Cc1c[nH]cn1)C(=O)N2 [AOD] (H-GFGCPWNRYQCHSHCRSIGRLGGYCAGSLRLTCTCYRS-OH; disulfide 4-25, 11-33, 15-35)",MIC,S. hyicus NCTC 10350; microbroth dilution,16 µg/mL
same,MIC,S. epidermidis G-81 [1]; microbroth dilution,4 µg/mL
same,MIC,[2]; microbroth dilution,4 µg/mL
same,cell survival rate,Hacat cells; 128 μg/mL,over 83%
same,cell survival rate,Hacat cells; 128 mg/mL (so in the source),98%
same,heart indices,S. epidermidis G-81 [3],elevated only in the AOD-treated group
same,MIC,S. aureus ATCC 25923; microbroth dilution,16 µg/mL
same,MIC,S. aureus ATCC 43300; microbroth dilution,8 µg/mL
same,MIC,S. aureus E48,8 µg/mL
same,hemolysis rate,mouse red blood cells,less than 0.5%
same,MIC,S. agalactiae ATCC 13813,4 µg/mL
same,MIC,[4],4 µg/mL
same,ion stability,Ion stability,remarkable stability
same,MIC values after treatment with pepsin,pepsin,remained unchanged
same,MIC values after treatment with trypsin,trypsin,remained unchanged
same,antibacterial activity remaining after heating,[5],20%
same,MIC,[6],8 µg/mL
"CCC[C@@H]1C[C@@H](C(=O)N[C@@H]([C@H]2O[C@H](SC)[C@H](O)[C@@H](O)[C@H]2O)[C@@H](C)O)N(C)C1 [Lincomycin, reference compound]",MIC,"S. hyicus NCTC 10350; Staphylococcus hyicus, NCTC10350, microbroth dilution, read-out: MIC",32 µg/mL
same,MIC,"S. epidermidis G-81 [1]; Staphylococcus epidermidis, G81, microbroth dilution, read-out: MIC",4 µg/mL
same,MIC,"[2]; Staphylococcus epidermidis, ATCC12228, microbroth dilution, read-out: MIC",4 µg/mL
same,MIC,E. coli ATCC 25922,2 µg/mL
same,MIC,"S. aureus ATCC 25923; Staphylococcus aureus, ATCC25923, microbroth dilution, read-out: MIC",1 µg/mL
same,MIC,"S. aureus ATCC 43300; Staphylococcus aureus, ATCC43300, microbroth dilution, read-out: MIC",> 64 µg/mL
same,MIC,"S. aureus E48; Staphylococcus aureus, read-out: MIC",1 µg/mL
same,course of bacterial counts,S. epidermidis G-81 [7],gradual decrease
same,MIC,[6]; read-out: MIC,32 µg/mL
